Source: US5578596A, “2-alkoxy-5,6,7,8-tetrahydroquinoxaline derivatives, and production method and use thereof” (Asahi Kasei Kogyo Kabushiki Kaisha, priority 1992, dated 1996)
pKi: −log10 of the molar value.

What was measured:
[1] = target: T1, serotonin 1A (5HT1A) receptor (Rattus norvegicus, UniProt P19327); experiment: Affinity for serotonin 1A (5HT1A) receptor: inhibition of 3H-8-OH-DPAT binding to rat hippocampal membrane fraction; conditions: test compound as hydrochloride
T1 construct: The resultant precipitate was used as a rat hippocampal membrane fraction in the following procedures; from tissue; host or cells: hippocampal membrane fraction of male SD rat (7 weeks old; animals from Charles River)
T1 sequence (P19327 1-422): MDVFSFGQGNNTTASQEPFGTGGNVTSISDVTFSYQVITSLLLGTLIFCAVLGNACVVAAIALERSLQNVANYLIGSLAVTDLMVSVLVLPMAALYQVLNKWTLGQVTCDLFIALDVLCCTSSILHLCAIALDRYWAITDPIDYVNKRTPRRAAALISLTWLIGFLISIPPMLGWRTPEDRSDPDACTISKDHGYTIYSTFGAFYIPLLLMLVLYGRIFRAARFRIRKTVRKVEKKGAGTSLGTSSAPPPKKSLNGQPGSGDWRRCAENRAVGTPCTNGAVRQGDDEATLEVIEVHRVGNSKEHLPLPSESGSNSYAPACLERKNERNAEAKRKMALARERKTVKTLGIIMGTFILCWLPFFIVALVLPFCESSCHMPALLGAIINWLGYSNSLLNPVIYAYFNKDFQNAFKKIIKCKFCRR
Protocol: 1. Affinity for serotonin 1A (5HT1A) receptor
(A) Preparation of rat hippocampal membrane fraction
A male SD strain rat (7-week old; Charles River) was decapitated, and brain was taken out therefrom quickly. 50 mM Tris-HCl buffer (pH 7.4) was added to the brain under ice cooling to obtain a suspension. The resultant suspension was homogenized, and then subjected to centrifugation at 48000 g for 15 minutes, to thereby obtain a precipitate. The precipitate was resuspended in the same Tris-HCl buffer as used above. The resultant suspension was incubated at 30° C. for 20 minutes to decompose endogenous serotonin of the rat hippocampal membrane, followed by centrifugation at 48000 g for 15 minutes to thereby obtain a precipitate. The resultant precipitate was used as a rat hippocampal membrane fraction in the following procedures.
(B) Method for the evaluation of the binding ability of ^3 H-8-hydroxy-dipropylaminotetralin (^3 H-8-OH-DPAT) to serotonin 1A receptor
The rat hippocampal membrane fraction prepared in step (A) above (about 100 to 200 μg in terms of proteins) was reacted with 0.5 nM (final concentration) ^3 H-8-OH-DPAT (which is commercially available from DuPont-NEN Research Products) and 10 μM (final concentration) pargyline (which is commercially available from Sigma Chemical Company) at 30° C. for 30 minutes to effect a reaction. The resultant reaction mixture was subjected to suction filtration using a Whatman GF/C filter, to thereby terminate the reaction. The radio-activity of ^3 H-8-OH-DPAT adsorbed on the filter was determined using a liquid scintillation counter. The obtained value is regarded as a total amount (TB) of specifically binding ^3 H-8-OH-DPAT and non-specifically binding ^3 H-8-OH-DPAT.
On the other hand, substantially the same procedure as mentioned above was repeated, except that 10 μM (final concentration) serotonin was added to the ^3 H-8-OH-DPAT and pargyline. The radioactivity of ^3 H-8-OH-DPAT adsorbed on the filter was determined in the same manner as mentioned above. The obtained value is regarded as the amount (NB) of non-specifically binding ^3 H-8-OH-DPAT.
Further, substantially the same procedure as mentioned above was repeated, except that, instead of serotonin, a test compound was used in a predetermined concentration. The radioactivity of ^3 H-8-OH-DPAT adsorbed on the filter was determined in the same manner as mentioned above. The obtained value is regarded as the amount (DTB) of binding ^3 H-8-OH-DPAT.
(C) Calculation of Ki value
The inhibition ratio of the test compound (at a certain concentration) against the binding of 3H-8-OH-DPAT (the inhibition ratio is hereinafter referred to simply as "binding inhibition ratio") was calculated according to the following formula:
Binding inhibition ratio (%)=100-(DTB-NB).div.(TB-NB)×100
With respect to each of the test compounds, the binding inhibition ratios at various concentrations (from a higher concentration to a lower concentration) were determined. The binding inhibition ratios were plotted, taking the logarithmic value of the concentration of test compound as the abscissa value, and the binding inhibition ratio as the ordinate value. Then, a curve was drawn by non-linear least square method.
The Ki value was determined according to the following formula:
[L] is the concentration (0.2 nM) of a radioactive ligand (^3 H-8-OH-DPAT) used in the test;

[2] = system: Suncus murinus (motion sickness emesis); experiment: Activities against motion sickness: acceleration-stimulus induced emesis in suncus; type: in vivo; conditions: 1 mg/kg intraperitoneal, 30 min before acceleration-stimulus (4 cm, 1 Hz), observed 10 min; hydrochloride; 4 suncus
Description: The activities of individual compounds against motion sickness were examined using Suncus murinus. Suncus murinus is a small animal belonging to the Soricidae family. It has been known that suncus is likely to suffer from motion sickness and is susceptible to occurrence of emesis [see "Seitai-no-kagaku (Science of living body)", 41, 538 (1990)]. Suncus is likely to show symptoms like the symptoms of human motion sickness under the stimulus of simple acceleration, finally leading to the occurrence of emesis. It has been recognized that motion sickness is caused by the occurrence of disorder in information, such as vision, equilibrium sense and the like, or by a stimulus which has never been memorized. Further, it has been recognized that the disorder in the inner earvestibular nucleus pathway and the high-order function of brain take part in the occurrence of motion sickness. Therefore, medicines capable of suppressing the occurrence of emesis of suncus would be useful for preventing and treating motion sickness, space sickness, emesis, dizziness and the like.
In this test, test compounds were individually administered intraperitoneally to suncus.
The time for occurrence of emesis was measured with respect to each of the test compounds, and the results are shown in Table 3.

cisplatin-induced emesis = experiment: Suppression of cisplatin-induced emesis in suncus; type: in vivo; conditions: hydrochloride 0.3 mg/kg intraperitoneal, 30 min before cisplatin 20 mg/kg i.p.
Protocol: (§1) It has been known that cisplatin and nicotine have an emesis-inducing activity. In this test, it was investigated as to whether the hydrochloride of compound (1) of the present invention has the activity to suppress the occurrence of emeses which are induced by these drugs.
Cisplatin was intraperitoneally administered to each of four suncuses (20 mg/kg). As a result, with respect to all of the suncuses, emesis occurred 10 to 20 times within 40 to 70 minutes after the administration of the cisplatin.

nicotine-induced emesis = experiment: Suppression of nicotine-induced emesis in suncus; type: in vivo; conditions: hydrochloride 3 mg/kg intraperitoneal, 30 min before nicotine 4 mg/kg s.c.
Protocol: as §1
On the other hand, nicotine was subcutaneously administered to four suncuses (4 mg/kg). As a result, with respect to all of the suncuses, emesis was induced 11 to 29 times within 3 to 10 minutes after the administration of the nicotine.

[3] = system: immobile state of rat in forced swimming test; experiment: Anti-depression activity evaluated by forced swimming test using rats; type: in vivo, male Wistar strain rats; conditions: hydrochloride; for Time spent in immobile state: 30 min before test, observed 6 min, 6 rats, saline control 236 sec.
Protocol: 4. Anti-depression activity (which was evaluated by forced swimming test using rats)
When a rat is put in a water tank, the rat struggles for its life to get out of the water (that is, the rat starts a "forced swimming"). If the rat finds that it is impossible for him to get out, the rat stops swimming and assumes an immobile state. It has been known that the administration of an antidepressant can cause a violent swimming motion in the rat for getting out of the water, with a result that the time spent in the immobile state is shortened. The shortening of the time in the immobile state of the rat in the forced swimming test by the administration of the antidepressant is well correlated to the clinical anti-depression effect. Accordingly, in developing antidepressants, the forced swimming test using a rat is the most reliable screening method. In the present test, male Wistar strain rats were used. Compound 300 of the present invention (in the form of the hydrochloride thereof) was intraperitoneally administered to a rat. 30 minutes after the administration, the rat was put in a water tank and then, observed for 6 minutes. The time for the rat to keep the immobile state was measured.

[4] = known, background; cited from earlier work

Row | SMILES | pKi [1] | Time for occurrence of emesis [2] | occurrence of cisplatin-induced emesis (cisplatin-induced emesis) | occurrence of nicotine-induced emesis (nicotine-induced emesis) | time for the rat to keep the immobile state (in words) ([3]; 1 mg/kg and 10 mg/kg) | Time spent in immobile state ([3]; 1 mg/kg intraperitoneal) | Time spent in immobile state ([3]; 10 mg/kg intraperitoneal) | effect on emesis induced by drugs other than cisplatin [4] | effect on motion sickness [4] | suppression of cisplatin-induced emesis [4]
1 | c1ccc(N2CCN(CCCCOc3cnc4c(n3)CCCC4)CC2)nc1 [Compound 300, 2-[4-{4-(2-Pyridyl)-1-piperazinyl}butoxy]-5,6,7,8-tetrahydroquinoxaline] | 8.80 | Emesis did not occur | completely suppressed | completely suppressed | remarkably shortened | 173 s | 163 s | – | – | –
2 | Cc1nccn1CC1CCc2c(c3ccccc3n2C)C1=O (stereo not shown) [ondansetron] | – | – | – | – | – | – | – | no effect | no effect | effective for suppressing cisplatin-induced emesis
